Reference: patent US11713338B2, “Cyclic peptides multimers targeting α-4-β-7 integrin” (priority 2016, dated 2023)

biological target: T1, integrin α4β7 (RPMI8866 human cells adhering to MAdCAM-1) (Homo sapiens, UniProt P13612+P26010); test: Integrin α4β7-MAdCAM cell adhesion assay (RPMI8866 cells); format: cell-based; settings: RPMI8866 cells adhering to MAdCAM; read-out: RPMI8866 Adhesion α4β7/MAdCAM IC50
T1 construct: RMP18866 cells, which express integrin α4β7; host or cells: RPMI8866
T1 sequence (P13612 34-1032): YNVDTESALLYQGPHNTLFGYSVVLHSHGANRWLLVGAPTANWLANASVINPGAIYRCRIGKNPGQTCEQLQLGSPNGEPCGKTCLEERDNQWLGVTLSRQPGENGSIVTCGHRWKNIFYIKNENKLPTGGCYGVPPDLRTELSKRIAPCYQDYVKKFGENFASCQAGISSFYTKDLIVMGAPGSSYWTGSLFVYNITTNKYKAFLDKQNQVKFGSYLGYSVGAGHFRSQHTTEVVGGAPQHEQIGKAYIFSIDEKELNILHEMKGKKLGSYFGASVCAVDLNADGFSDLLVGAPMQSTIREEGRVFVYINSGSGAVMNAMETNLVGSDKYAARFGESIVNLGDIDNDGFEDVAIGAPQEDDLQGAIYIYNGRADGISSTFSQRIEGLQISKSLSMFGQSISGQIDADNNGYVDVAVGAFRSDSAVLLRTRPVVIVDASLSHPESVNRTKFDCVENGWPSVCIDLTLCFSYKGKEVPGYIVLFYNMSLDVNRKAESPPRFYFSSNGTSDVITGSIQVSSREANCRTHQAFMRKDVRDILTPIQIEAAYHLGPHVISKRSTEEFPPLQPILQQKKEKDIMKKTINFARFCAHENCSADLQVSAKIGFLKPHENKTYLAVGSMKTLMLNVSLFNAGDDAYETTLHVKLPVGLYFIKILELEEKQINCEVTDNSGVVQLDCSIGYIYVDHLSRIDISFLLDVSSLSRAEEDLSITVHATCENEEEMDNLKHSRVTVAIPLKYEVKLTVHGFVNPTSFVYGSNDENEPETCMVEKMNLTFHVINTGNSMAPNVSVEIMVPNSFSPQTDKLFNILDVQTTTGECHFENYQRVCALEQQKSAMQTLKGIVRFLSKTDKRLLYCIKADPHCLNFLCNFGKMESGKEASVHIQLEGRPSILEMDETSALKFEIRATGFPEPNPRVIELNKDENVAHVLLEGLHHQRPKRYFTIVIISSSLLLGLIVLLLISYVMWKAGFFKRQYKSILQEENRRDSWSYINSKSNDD
T1 sequence (P26010 20-798): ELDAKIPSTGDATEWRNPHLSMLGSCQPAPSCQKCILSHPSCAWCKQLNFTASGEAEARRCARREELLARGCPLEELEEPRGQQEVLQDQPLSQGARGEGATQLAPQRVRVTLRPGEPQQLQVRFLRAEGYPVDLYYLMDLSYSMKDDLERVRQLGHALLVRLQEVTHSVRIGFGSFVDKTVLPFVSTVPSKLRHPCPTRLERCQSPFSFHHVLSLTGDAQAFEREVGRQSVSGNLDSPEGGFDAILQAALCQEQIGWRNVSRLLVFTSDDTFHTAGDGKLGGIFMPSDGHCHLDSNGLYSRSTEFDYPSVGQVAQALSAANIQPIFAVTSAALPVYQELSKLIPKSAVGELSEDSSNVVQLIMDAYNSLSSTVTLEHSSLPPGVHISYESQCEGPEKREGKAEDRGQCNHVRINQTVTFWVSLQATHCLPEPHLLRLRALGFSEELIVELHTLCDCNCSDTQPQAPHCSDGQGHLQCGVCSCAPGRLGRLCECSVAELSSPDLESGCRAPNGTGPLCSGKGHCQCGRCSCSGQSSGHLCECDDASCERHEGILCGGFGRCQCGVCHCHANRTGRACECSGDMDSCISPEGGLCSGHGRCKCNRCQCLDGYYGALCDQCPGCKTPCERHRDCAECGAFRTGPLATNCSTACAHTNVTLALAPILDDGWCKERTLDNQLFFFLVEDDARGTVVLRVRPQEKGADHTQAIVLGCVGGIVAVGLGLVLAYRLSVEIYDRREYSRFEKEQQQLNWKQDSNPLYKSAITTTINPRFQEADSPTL
In short: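 RPMI8866 cells were loaded with […] calcein in PBS for 30 min at 37° C. After plate washes with PBS, fluorescence of adherent cells was read, and no-cell control wells were subtracted from each test well to build the dose response.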

Structure (SMILES)	IC50
CC(C)C[C@@H]1NC(=O)c2ccc(-c3ccc(N4CCN(C(=O)COCC(=O)N5CCN(c6ccc(-c7ccc8cc7CNC(=O)[C@@H]7CCCN7[C@H](C(=O)NC(C)(C)C)[C@H](C)NC(=O)[C@H]([C@@H](C)O)NC(=O)[C@H](CC(=O)O)NC(=O)[C@H](CC(C)C)NC8=O)cc6)CC5)CC4)cc3)c(c2)CNC(=O)[C@@H]2CCCN2[C@H](C(=O)NC(C)(C)C)[C@H](C)NC(=O)[C@H]([C@@H](C)O)NC(=O)[C@H](CC(=O)O)NC1=O [Compound 390]	13 nM
CC(C)C[C@@H]1NC(=O)c2ccc(-c3ccc(N4CCN(C(=O)CCCCCCCCCCC(=O)N5CCN(c6ccc(-c7ccc8cc7CNC(=O)[C@@H]7CCCN7[C@H](C(=O)NC(C)(C)C)[C@H](C)NC(=O)[C@H]([C@@H](C)O)NC(=O)[C@H](CC(=O)O)NC(=O)[C@H](CC(C)C)NC8=O)cc6)CC5)CC4)cc3)c(c2)CNC(=O)[C@@H]2CCCN2[C@H](C(=O)NC(C)(C)C)[C@H](C)NC(=O)[C@H]([C@@H](C)O)NC(=O)[C@H](CC(=O)O)NC1=O [Compound 392]	28 nM
CC(C)C[C@@H]1NC(=O)c2ccc(-c3ccc(N4CCN(C(=O)[C@H]5CCC[C@H]5C(=O)N5CCN(c6ccc(-c7ccc8cc7CNC(=O)[C@@H]7CCCN7[C@H](C(=O)NC(C)(C)C)[C@H](C)NC(=O)[C@H]([C@@H](C)O)NC(=O)[C@H](CC(=O)O)NC(=O)[C@H](CC(C)C)NC8=O)cc6)CC5)CC4)cc3)c(c2)CNC(=O)[C@@H]2CCCN2[C@H](C(=O)NC(C)(C)C)[C@H](C)NC(=O)[C@H]([C@@H](C)O)NC(=O)[C@H](CC(=O)O)NC1=O [Compound 458]	42 nM
CC(C)C[C@@H]1NC(=O)c2ccc(-c3ccc(N4CCN(C(=O)C56CC7CC(C5)CC(C(=O)N5CCN(c8ccc(-c9ccc%10cc9CNC(=O)[C@@H]9CCCN9[C@H](C(=O)NC(C)(C)C)[C@H](C)NC(=O)[C@H]([C@@H](C)O)NC(=O)[C@H](CC(=O)O)NC(=O)[C@H](CC(C)C)NC%10=O)cc8)CC5)(C7)C6)CC4)cc3)c(c2)CNC(=O)[C@@H]2CCCN2[C@H](C(=O)NC(C)(C)C)[C@H](C)NC(=O)[C@H]([C@@H](C)O)NC(=O)[C@H](CC(=O)O)NC1=O [Compound 460]	62 nM
CC(C)C[C@@H]1NC(=O)c2ccc(-c3ccc(N4CCN(C(=O)C5(C(=O)N6CCN(c7ccc(-c8ccc9cc8CNC(=O)[C@@H]8CCCN8[C@H](C(=O)NC(C)(C)C)[C@H](C)NC(=O)[C@H]([C@@H](C)O)NC(=O)[C@H](CC(=O)O)NC(=O)[C@H](CC(C)C)NC9=O)cc7)CC6)Cc6ccccc6C5)CC4)cc3)c(c2)CNC(=O)[C@@H]2CCCN2[C@H](C(=O)NC(C)(C)C)[C@H](C)NC(=O)[C@H]([C@@H](C)O)NC(=O)[C@H](CC(=O)O)NC1=O [Compound 461]	39 nM
CC(C)C[C@@H]1NC(=O)c2ccc(-c3ccc(N4CCN(C(=O)c5ccc(-c6cccc(C(=O)N7CCN(c8ccc(-c9ccc%10cc9CNC(=O)[C@@H]9CCCN9[C@H](C(=O)NC(C)(C)C)[C@H](C)NC(=O)[C@H]([C@@H](C)O)NC(=O)[C@H](CC(=O)O)NC(=O)[C@H](CC(C)C)NC%10=O)cc8)CC7)n6)nc5)CC4)cc3)c(c2)CNC(=O)[C@@H]2CCCN2[C@H](C(=O)NC(C)(C)C)[C@H](C)NC(=O)[C@H]([C@@H](C)O)NC(=O)[C@H](CC(=O)O)NC1=O [Compound 466]	97 nM
CC(C)C[C@@H]1NC(=O)c2ccc(-c3ccc(N4CCN(C(=O)c5nccnc5C(=O)N5CCN(c6ccc(-c7ccc8cc7CNC(=O)[C@@H]7CCCN7[C@H](C(=O)NC(C)(C)C)[C@H](C)NC(=O)[C@H]([C@@H](C)O)NC(=O)[C@H](CC(=O)O)NC(=O)[C@H](CC(C)C)NC8=O)cc6)CC5)CC4)cc3)c(c2)CNC(=O)[C@@H]2CCCN2[C@H](C(=O)NC(C)(C)C)[C@H](C)NC(=O)[C@H]([C@@H](C)O)NC(=O)[C@H](CC(=O)O)NC1=O [Compound 467]	43 nM

same assay, conditions: RPMI8866 cells; read-out: IC50 in the RPMI8866 cell adhesion assay

Structure (SMILES)	IC50
CC(C)C[C@@H]1NC(=O)C[C@H](CCCCN)N(C)C(=O)[C@H](CCCCN)NC(=O)[C@@H]2CCCN2[C@H](C(=O)NC(C)(C)C)[C@H](C)NC(=O)[C@H]([C@@H](C)O)NC(=O)[C@H](CC(=O)O)NC1=O [Compound 456]	199 nM
